Measured values from PubChem BioAssay (NCI).
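Step 1: Grow cells in 96-well plates. Step 2: Expose to compound for 48 hours at 5 concentrations. Step 3: Interpolate endpoints linearly; if unreached, use highest concentration. TGI: concentration producing complete growth inhibition.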

Legend:
Assay in all cases: DTP human tumour cell line panel, 48 h
HCT-116 colon = test system: HCT-116 colon
UO-31 renal = test system: UO-31 renal
EKVX NSCLC = test system: EKVX NSCLC
HS 578T breast = test system: HS 578T breast
TK-10 renal = test system: TK-10 renal
HOP-62 NSCLC = test system: HOP-62 NSCLC
IGROV1 ovarian = test system: IGROV1 ovarian
SN12C renal = test system: SN12C renal
KM12 colon = test system: KM12 colon
MALME-3M melanoma = test system: MALME-3M melanoma
SNB-19 CNS = test system: SNB-19 CNS
SF-539 CNS = test system: SF-539 CNS
MDA-N = test system: MDA-N
T-47D breast = test system: T-47D breast
SK-MEL-28 melanoma = test system: SK-MEL-28 melanoma
A498 renal = test system: A498 renal
LOX IMVI melanoma = test system: LOX IMVI melanoma
HCT-15 colon = test system: HCT-15 colon
MCF7 breast = test system: MCF7 breast
OVCAR-5 ovarian = test system: OVCAR-5 ovarian
A549 NSCLC = test system: A549 NSCLC
OVCAR-3 ovarian = test system: OVCAR-3 ovarian
786-0 renal = test system: 786-0 renal
MOLT-4 leukemia = test system: MOLT-4 leukemia
SK-MEL-2 melanoma = test system: SK-MEL-2 melanoma
BT-549 breast = test system: BT-549 breast
UACC-62 melanoma = test system: UACC-62 melanoma
SF-268 CNS = test system: SF-268 CNS
ACHN renal = test system: ACHN renal
SK-MEL-5 melanoma = test system: SK-MEL-5 melanoma
NCI-H226 lung = test system: NCI-H226 lung
NCI-H23 lung = test system: NCI-H23 lung
NCI-H460 lung = test system: NCI-H460 lung
OVCAR-4 ovarian = test system: OVCAR-4 ovarian
SNB-75 CNS = test system: SNB-75 CNS
SK-OV-3 ovarian = test system: SK-OV-3 ovarian
MDA-MB-231 breast = test system: MDA-MB-231 breast
PC-3 prostate = test system: PC-3 prostate
OVCAR-8 ovarian = test system: OVCAR-8 ovarian
M14 melanoma = test system: M14 melanoma
CAKI-1 renal = test system: CAKI-1 renal
COLO 205 colon = test system: COLO 205 colon
NCI-H522 lung = test system: NCI-H522 lung
SF-295 CNS = test system: SF-295 CNS
HOP-92 NSCLC = test system: HOP-92 NSCLC
DU-145 prostate = test system: DU-145 prostate
SW-620 colon = test system: SW-620 colon
UACC-257 melanoma = test system: UACC-257 melanoma
MDA-MB-435 = test system: MDA-MB-435
U251 CNS = test system: U251 CNS
HT29 colon = test system: HT29 colon
HL-60(TB) leukemia = test system: HL-60(TB) leukemia
CCRF-CEM leukemia = test system: CCRF-CEM leukemia
NCI/ADR-RES ovarian = test system: NCI/ADR-RES ovarian
K-562 leukemia = test system: K-562 leukemia
RXF 393 renal = test system: RXF 393 renal
RPMI-8226 leukemia = test system: RPMI-8226 leukemia

Measured: TGI

COc1c2cc([N+](=O)[O-])cc1CN(C(=O)C(F)(F)F)CCOCCN(C(=O)C(F)(F)F)C2
not listed: NCI/ADR-RES ovarian | K-562 leukemia | RXF 393 renal | RPMI-8226 leukemia
> 100 µM: all other assays above

CC1(C)N=C(c2ccccc2)SC12S[C@@H]1CCCC[C@H]1S2
54.5 µM: SK-MEL-5 melanoma
93.5 µM: MDA-N
16.8 µM: HS 578T breast
33.9 µM: A498 renal
31.3 µM: NCI-H23 lung
32.1 µM: SNB-19 CNS
not listed: 786-0 renal
> 100 µM: all other assays above
